The subject of the first experiment is NCI-H1299. In words: relative viability (nuclei count vs DMSO), 5 days (fraction); higher = more cells survive. Particulars: first compound 2 µM. In outline:
(§1)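 Five library-drug doses in √10 steps were combined with a fixed anchor-drug dose, or a single drug was given alone, by pin tool to lung cancer cell lines in 1536-well plates the day after seeding. Nuclei were stained and counted after 5 days. Relative viability is the nuclei count in treated wells over that in vehicle wells, taken as the median of duplicate plates.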
`COCC1(CO)C(=O)C2CCN1CC2` (configuration not stated) [PRIMA-1MET] + C[C@]1(O)C[C@@H](c2nc(-c3ccc4ccc(-c5ccccc5)nc4c3)c3c(N)nccn32)C1 [Linsitinib] (partner 1 µM) gave a relative viability of 1.01.

As for `COCC1(CO)C(=O)C2CCN1CC2` (configuration not stated) [PRIMA-1MET] + CC(C)C[C@H](NC(=O)[C@H](Cc1ccccc1)NC(=O)c1cnccn1)B(O)O [Bortezomib] (partner 0.002 µM), the relative viability was 0.96.

Compound `COCC1(CO)C(=O)C2CCN1CC2` (configuration not stated) [PRIMA-1MET] + Cc1nc(NC(=O)N2CCC[C@H]2C(N)=O)sc1-c1ccnc(C(C)(C)C(F)(F)F)c1 [Alpelisib] (partner 2 µM) gave a relative viability of 1.08.

Still in this experiment, the particulars now being: first compound 6.325 µM.
The compound `COCC1(CO)C(=O)C2CCN1CC2` (configuration not stated) [PRIMA-1MET] + CS(=O)(=O)CCNCc1ccc(-c2ccc3ncnc(Nc4ccc(OCc5cccc(F)c5)c(Cl)c4)c3c2)o1 [Lapatinib] (partner 2 µM) returned a relative viability of 0.99.

`COCC1(CO)C(=O)C2CCN1CC2` (configuration not stated) [PRIMA-1MET] + C[C@]1(O)C[C@@H](c2nc(-c3ccc4ccc(-c5ccccc5)nc4c3)c3c(N)nccn32)C1 [Linsitinib] (partner 1 µM) yielded a relative viability of 1.05.

Turning to `COCC1(CO)C(=O)C2CCN1CC2` (configuration not stated) [PRIMA-1MET] + CC(C)C[C@H](NC(=O)[C@H](Cc1ccccc1)NC(=O)c1cnccn1)B(O)O [Bortezomib] (partner 0.002 µM), the relative viability came out at 1.09.

Regarding `COCC1(CO)C(=O)C2CCN1CC2` (configuration not stated) [PRIMA-1MET] + Cc1nc(NC(=O)N2CCC[C@H]2C(N)=O)sc1-c1ccnc(C(C)(C)C(F)(F)F)c1 [Alpelisib] (partner 2 µM), the relative viability came out at 1.03.

Still in this experiment, the particulars now being: first compound 20 µM.
For `COCC1(CO)C(=O)C2CCN1CC2` (configuration not stated) [PRIMA-1MET] + CS(=O)(=O)CCNCc1ccc(-c2ccc3ncnc(Nc4ccc(OCc5cccc(F)c5)c(Cl)c4)c3c2)o1 [Lapatinib] (partner 2 µM), the relative viability was 0.947.

As to `COCC1(CO)C(=O)C2CCN1CC2` (configuration not stated) [PRIMA-1MET] + C[C@]1(O)C[C@@H](c2nc(-c3ccc4ccc(-c5ccccc5)nc4c3)c3c(N)nccn32)C1 [Linsitinib] (partner 1 µM), the relative viability stood at 0.917.

`COCC1(CO)C(=O)C2CCN1CC2` (configuration not stated) [PRIMA-1MET] + CC(C)C[C@H](NC(=O)[C@H](Cc1ccccc1)NC(=O)c1cnccn1)B(O)O [Bortezomib] (partner 0.002 µM) showed a relative viability of 0.996.

`COCC1(CO)C(=O)C2CCN1CC2` (configuration not stated) [PRIMA-1MET] + Cc1nc(NC(=O)N2CCC[C@H]2C(N)=O)sc1-c1ccnc(C(C)(C)C(F)(F)F)c1 [Alpelisib] (partner 2 µM) displayed a relative viability of 0.976.

A further experiment concerns HCC-366. The description is as above. To be noted: first compound 0.2 µM. In outline:
as §1
Consider `COCC1(CO)C(=O)C2CCN1CC2` (configuration not stated) [PRIMA-1MET] + CS(=O)(=O)CCNCc1ccc(-c2ccc3ncnc(Nc4ccc(OCc5cccc(F)c5)c(Cl)c4)c3c2)o1 [Lapatinib] (partner 2 µM), for which the relative viability is 1.28.

With `COCC1(CO)C(=O)C2CCN1CC2` (configuration not stated) [PRIMA-1MET] + C[C@]1(O)C[C@@H](c2nc(-c3ccc4ccc(-c5ccccc5)nc4c3)c3c(N)nccn32)C1 [Linsitinib] (partner 1 µM), the relative viability was 0.773.

`COCC1(CO)C(=O)C2CCN1CC2` (configuration not stated) [PRIMA-1MET] + CC(C)C[C@H](NC(=O)[C@H](Cc1ccccc1)NC(=O)c1cnccn1)B(O)O [Bortezomib] (partner 0.002 µM): the relative viability was determined as 1.15.

`COCC1(CO)C(=O)C2CCN1CC2` (configuration not stated) [PRIMA-1MET] + Cc1nc(NC(=O)N2CCC[C@H]2C(N)=O)sc1-c1ccnc(C(C)(C)C(F)(F)F)c1 [Alpelisib] (partner 2 µM) displayed a relative viability of 0.865.

The experiment is the same for the next values; noted with them: first compound 0.6325 µM.
Take `COCC1(CO)C(=O)C2CCN1CC2` (configuration not stated) [PRIMA-1MET] + CS(=O)(=O)CCNCc1ccc(-c2ccc3ncnc(Nc4ccc(OCc5cccc(F)c5)c(Cl)c4)c3c2)o1 [Lapatinib] (partner 2 µM): the relative viability came out at 0.856.

`COCC1(CO)C(=O)C2CCN1CC2` (configuration not stated) [PRIMA-1MET] + C[C@]1(O)C[C@@H](c2nc(-c3ccc4ccc(-c5ccccc5)nc4c3)c3c(N)nccn32)C1 [Linsitinib] (partner 1 µM) returned a relative viability of 0.566.

`COCC1(CO)C(=O)C2CCN1CC2` (configuration not stated) [PRIMA-1MET] + CC(C)C[C@H](NC(=O)[C@H](Cc1ccccc1)NC(=O)c1cnccn1)B(O)O [Bortezomib] (partner 0.002 µM) registered a relative viability of 0.838.

In turn, `COCC1(CO)C(=O)C2CCN1CC2` (configuration not stated) [PRIMA-1MET] + Cc1nc(NC(=O)N2CCC[C@H]2C(N)=O)sc1-c1ccnc(C(C)(C)C(F)(F)F)c1 [Alpelisib] (partner 2 µM) returned a relative viability of 0.37.

Staying with this experiment, now noted: first compound 6.325 µM.
In the case of `COCC1(CO)C(=O)C2CCN1CC2` (configuration not stated) [PRIMA-1MET] + CS(=O)(=O)CCNCc1ccc(-c2ccc3ncnc(Nc4ccc(OCc5cccc(F)c5)c(Cl)c4)c3c2)o1 [Lapatinib] (partner 2 µM), the relative viability came to 0.915.

On to `COCC1(CO)C(=O)C2CCN1CC2` (configuration not stated) [PRIMA-1MET] + C[C@]1(O)C[C@@H](c2nc(-c3ccc4ccc(-c5ccccc5)nc4c3)c3c(N)nccn32)C1 [Linsitinib] (partner 1 µM), for which the relative viability was 0.636.

As to `COCC1(CO)C(=O)C2CCN1CC2` (configuration not stated) [PRIMA-1MET] + CC(C)C[C@H](NC(=O)[C@H](Cc1ccccc1)NC(=O)c1cnccn1)B(O)O [Bortezomib] (partner 0.002 µM), the relative viability is 1.01.

In the case of `COCC1(CO)C(=O)C2CCN1CC2` (configuration not stated) [PRIMA-1MET] + Cc1nc(NC(=O)N2CCC[C@H]2C(N)=O)sc1-c1ccnc(C(C)(C)C(F)(F)F)c1 [Alpelisib] (partner 2 µM), the relative viability was 0.376.

Staying with this experiment, now noted: first compound 20 µM.
`COCC1(CO)C(=O)C2CCN1CC2` (configuration not stated) [PRIMA-1MET] + CS(=O)(=O)CCNCc1ccc(-c2ccc3ncnc(Nc4ccc(OCc5cccc(F)c5)c(Cl)c4)c3c2)o1 [Lapatinib] (partner 2 µM) came in with a relative viability of 0.016.

`COCC1(CO)C(=O)C2CCN1CC2` (configuration not stated) [PRIMA-1MET] + C[C@]1(O)C[C@@H](c2nc(-c3ccc4ccc(-c5ccccc5)nc4c3)c3c(N)nccn32)C1 [Linsitinib] (partner 1 µM) came in with a relative viability of 0.0588.

With `COCC1(CO)C(=O)C2CCN1CC2` (configuration not stated) [PRIMA-1MET] + CC(C)C[C@H](NC(=O)[C@H](Cc1ccccc1)NC(=O)c1cnccn1)B(O)O [Bortezomib] (partner 0.002 µM), the relative viability worked out at 0.0138.

`COCC1(CO)C(=O)C2CCN1CC2` (configuration not stated) [PRIMA-1MET] + Cc1nc(NC(=O)N2CCC[C@H]2C(N)=O)sc1-c1ccnc(C(C)(C)C(F)(F)F)c1 [Alpelisib] (partner 2 µM) returned a relative viability of 0.0102.

The values are drawn from the supplement of paper PMC10307832.
